# Experimental data taken from patent US10562912B2 (C&C Research Laboratories, priority 2013, dated 2020).
# How the values were obtained:
# Assay type in all cases: cell-based
# DU-145 = experiment: Cell growth inhibition assay, prostate cancer cell line DU-145; conditions: Homo sapiens, DU-145 prostate cancer cell line
# Method in brief: (§1)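 Cells were seeded at 3,000/well (HCT116, DU-145) or 5,000/well (SW626 and the others) and exposed to serial compound dilutions for 72 to 96 h at 37 °C under 5% CO2. Viability was read as CellTiter-Glo luminescence against 0.1% DMSO and cell-free wells.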
# HEL92.1.7 = experiment: Cell growth inhibition assay, blood cancer cell line HEL92.1.7; conditions: Homo sapiens, HEL 92.1.7, HEL92.1.7 blood cancer cell line
# Method in brief: as §1
# LNCaP = experiment: Cell growth inhibition assay, prostate cancer cell line LNCaP (medium with 10 ng/mL IL-6); conditions: Homo sapiens, medium supplemented with 10 ng/mL of IL-6, 10,000 cells/well
# STAT3 = target: T1, STAT3 (Homo sapiens, UniProt P40763); experiment: STAT3 reporter gene assay (luciferase), LNCaP stable cell line (pSTAT3-TA-luc), IL-6 stimulation
# T1 construct: plasmid pSTAT3-TA-luc), which contains a stably operating STAT3 promoter; endogenous in cells
# T1 sequence (P40763 whole entry): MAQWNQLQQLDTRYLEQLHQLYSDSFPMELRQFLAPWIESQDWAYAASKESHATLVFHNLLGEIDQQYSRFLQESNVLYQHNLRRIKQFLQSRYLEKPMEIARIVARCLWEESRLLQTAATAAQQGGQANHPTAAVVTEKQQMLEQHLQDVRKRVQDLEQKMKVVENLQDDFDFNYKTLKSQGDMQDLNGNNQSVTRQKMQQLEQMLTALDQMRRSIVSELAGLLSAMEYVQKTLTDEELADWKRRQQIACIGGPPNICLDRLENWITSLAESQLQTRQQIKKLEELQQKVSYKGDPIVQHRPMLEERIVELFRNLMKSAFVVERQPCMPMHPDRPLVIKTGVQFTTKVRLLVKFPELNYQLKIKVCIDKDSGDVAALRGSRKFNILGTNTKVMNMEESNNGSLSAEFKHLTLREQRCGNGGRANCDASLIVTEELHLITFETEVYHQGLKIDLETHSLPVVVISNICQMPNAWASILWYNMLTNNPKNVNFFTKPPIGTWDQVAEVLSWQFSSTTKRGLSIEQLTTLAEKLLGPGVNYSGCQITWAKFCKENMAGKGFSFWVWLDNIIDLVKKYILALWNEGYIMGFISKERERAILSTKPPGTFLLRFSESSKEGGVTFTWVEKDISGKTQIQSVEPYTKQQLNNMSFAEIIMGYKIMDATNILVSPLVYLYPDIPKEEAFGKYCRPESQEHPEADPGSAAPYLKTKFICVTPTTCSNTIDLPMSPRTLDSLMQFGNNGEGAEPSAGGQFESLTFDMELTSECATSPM
# Method in brief: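 LNCaP cells stably carrying pSTAT3-TA-luc, in RPMI1640 with 3% DCC-FBS, were treated with compound and then stimulated with 10 ng/mL IL-6 for 24–48 h at 37 °C. Luciferase activity was measured in lysates. A parallel plate measured viability by CellTiter-Glo, with stimulated 0.1% DMSO wells as the positive control.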
# U266 = experiment: Cell growth inhibition assay, blood cancer cell line U266; conditions: Homo sapiens, U-266 blood cancer cell line
# Procedure: The inhibitory effects of the compounds of the present invention against the growth of cancer cells were evaluated as shown below. The cancer cell lines including stomach cancer cell line (AGS), breast cancer cell lines (MDA-MB-231, MDA-MB-468, and BT-549), prostate cancer cell lines (LNCaP and DU-145), colon cancer cell line (HCT116), ovarian cancer cell line (SW626), liver cancer cell line (Hep3B), kidney cancer cell line (ACHN), lung cancer cell line (NCI-H23) and blood cancer cell lines (HEL92.1.7 and U266) were cultured under the protocol provided by each supplier. A medium supplemented with 10 ng/mL of IL-6 was used for LNCaP, a prostate cancer cell line, when treated with a drug. Each type of cells to be used in experiments were sub-cultured in a 96-well plate by counting the exact number of cells using Tali™ Image-based Cytometer (Life Technologies). In a 96-well plate, AGS, HCT116, and DU-145 were employed with 3,000 cells/well; NCI-H23, SW626, Hep3B, ACHN, BT-549, MDA-MB-231, HEL92.1.7, and U266 were employed with 5,000 cells/well; and LNCaP and MDA-MB-468 were employed with 10,000 cells/well. The cells were treated with the compounds listed in Examples which were diluted in various concentrations. Upon completion of the compounds treatment, AGS, HCT116, SW626, DU145, NCI-H23, Hep3B, ACHN, BT-549, LNCaP, HEL92.1.7, and U266 cells were cultured at 37° C. under 5% CO2 for from 72 to 96 hours, and MDA-MB-231 and MDA-MB-468 cells were cultured at 37° C. in air for from 72 to 96 hours. Subsequently, the cells were observed under microscope and drug precipitation and particular findings were investigated and recorded. And then, the 96-well plate was placed at room temperature for 30 minutes, added with 20 μL/well of CellTiter-Glo solution (Cat No. G7573, Promega) and shaken for 10 minutes, followed by being subjected to the measurement using PHERAstar™ microplate reader (BMG LABTECH) according to the supplier's general luminometer protocol. Wells where only culture liquid added without cell plating were used as a negative control, whereas wells where culture liquid containing 0.1% DMSO instead of the compounds listed in Examples were used as a positive control.
Compound,IC50 (DU-145) [µM],IC50 (HEL92.1.7) [µM],IC50 (LNCaP) [µM],IC50 (STAT3) [µM],IC50 (U266) [µM]
"CC(C)Oc1cc(OC(F)(F)F)cc(C(C)(C)c2cc(Cl)cc(NC(=O)c3cc4nc(NS(C)(=O)=O)ccc4s3)c2)c1 [Example 70, N-(3-chloro-5-(2-(3-isopropoxy-5-(trifluoromethoxy)phenyl)propan-2-yl)phenyl)-5-(methylsulfonamido)thieno[3,2-b]pyridine-2-carboxamide]",0.12,0.36,0.29,0.068,0.46
"COc1cc(OC(F)(F)F)cc(C(C)(C)c2cc(Br)cc(NC(=O)c3cc4cc(NS(C)(=O)=O)cnc4s3)c2)c1 [Example 56, N-(3-bromo-5-(2-(3-methoxy-5-(trifluoromethoxy)phenyl)propan-2-yl)phenyl)-5-(methylsulfonamido)thieno[2,3-b]pyridine-2-carboxamide]",0.069,0.3,0.25,0.072,0.43
"CCOc1cc(OC(F)(F)F)cc(C(C)(C)c2cc(Cl)cc(NC(=O)c3cc4ccc(NS(C)(=O)=O)cc4[nH]3)c2)c1 [Example 59, N-(3-chloro-5-(2-(3-ethoxy-5-(trifluoromethoxy)phenyl)propan-2-yl)phenyl)-6-(methylsulfonamido)-1H-indole-2-carboxamide]",0.039,0.42,0.12,0.021,0.16
"CC(C)Oc1cc(CN2CCN(C(=O)C(C)(C)C)CC2)cc(C(C)(C)c2cc(Cl)cc(NC(=O)c3cc4cc(NS(C)(=O)=O)ccc4s3)c2)c1 [Example 127, N-(3-chloro-5-(2-(3-isopropoxy-5-((4-pivaloylpiperazin-1-yl)methyl)phenyl)propan-2-yl)phenyl)-5-(methylsulfonamido)benzo[b]thiophene-2-carboxamide]",0.066,0.34,0.14,0.15,0.43
"CC(C)(c1cc(Cl)cc(NC(=O)c2cc3cc(NS(C)(=O)=O)ccc3s2)c1)c1cc(OC(F)(F)F)cc(OC(F)(F)C(F)F)c1 [Example 80, N-(3-chloro-5-(2-(3-(1,1,2,2-tetrafluoroethoxy)-5-(trifluoromethoxy)phenyl)propan-2-yl)phenyl)-5-(methylsulfonamido)benzo[b]thiophene-2-carboxamide]",0.01,0.057,0.068,0.016,0.063
"CCCOc1cc(OC(F)(F)F)cc(C(C)(C)c2cc(Cl)cc(NC(=O)c3cc4cc(NS(C)(=O)=O)ccc4s3)c2)c1 [Example 73, N-(3-chloro-5-(2-(3-propoxy-5-(trifluoromethoxy)phenyl)propan-2-yl)phenyl)-5-(methylsulfonamido)benzo[b]thiophene-2-carboxamide]",0.006,0.056,0.033,0.01,0.058
"CC#CCOc1cc(OC(F)(F)F)cc(C(C)(C)c2cc(Cl)cc(NC(=O)c3cc4cc(NS(C)(=O)=O)ccc4s3)c2)c1 [Example 75, N-(3-(2-(3-(but-2-yn-1-yloxy)-5-(trifluoromethoxy)phenyl)propan-2-yl)-5-chlorophenyl)-5-(methylsulfonamido)benzo[b]thiophene-2-carboxamide]",0.003,0.02,0.029,0.008,0.021
"CCOc1cc(OC(F)(F)F)cc(C(C)(C)c2cc(Cl)cc(NC(=O)c3cc4cc(NS(C)(=O)=O)ccc4s3)c2)c1 [Example 58, N-(3-chloro-5-(2-(3-ethoxy-5-(trifluoromethoxy)phenyl)propan-2-yl)phenyl)-5-(methylsulfonamido)benzo[b]thiophene-2-carboxamide]",0.006,0.074,0.032,0.007,0.005
"CC(C)(c1cc(Cl)cc(NC(=O)c2cc3cc(NS(C)(=O)=O)ccc3s2)c1)c1cc(OCC#N)cc(OC(F)(F)F)c1 [Example 77, N-(3-chloro-5-(2-(3-(cyanomethoxy)-5-(trifluoromethoxy)phenyl)propan-2-yl)phenyl)-5-(methylsulfonamido)benzo[b]thiophene-2-carboxamide]",0.05,0.068,0.3,0.12,0.22
"CC(C)Oc1cc(OC(F)(F)F)cc(C(C)(C)c2cc(F)cc(NC(=O)c3cc4cc(NS(C)(=O)=O)ccc4s3)c2)c1 [Example 82, N-(3-fluoro-5-(2-(3-isopropoxy-5-(trifluoromethoxy)phenyl)propan-2-yl)phenyl)-5-(methylsulfonamido)benzo[b]thiophene-2-carboxamide]",0.008,0.048,0.03,0.024,0.045
"CC(C)Oc1cc(OC(F)(F)F)cc(C(C)(C)c2cc(Cl)cc(NC(=O)c3cc4cc(NS(C)(=O)=O)ncc4s3)c2)c1 [Example 71, N-(3-chloro-5-(2-(3-isopropoxy-5-(trifluoromethoxy)phenyl)propan-2-yl)phenyl)-5-(methylsulfonamido)thieno[2,3-c]pyridine-2-carboxamide]",0.048,0.13,0.091,0.009,0.17
"CC(C)Oc1cc(CN2CCOCC2)cc(C(C)(C)c2cc(Br)cc(NC(=O)c3cc4cc(NS(C)(=O)=O)ccc4s3)c2)c1 [Example 122, N-(3-bromo-5-(2-(3-isopropoxy-5-(morpholinomethyl)phenyl)propan-2-yl)phenyl)-5-(methylsulfonamido)benzo[b]thiophene-2-carboxamide]",0.049,0.19,0.24,0.12,0.18
"CCOc1cc(OC(F)(F)F)cc(C(C)(C)c2cc(Br)cc(NC(=O)c3cc4cc(NS(C)(=O)=O)ncc4s3)c2)c1 [Example 61, N-(3-bromo-5-(2-(3-ethoxy-5-(trifluoromethoxy)phenyl)propan-2-yl)phenyl)-5-(methylsulfonamido)thieno[2,3-c]pyridine-2-carboxamide]",0.06,0.14,0.13,0.066,0.22
"COc1cc(OC(F)(F)F)cc(C(C)(C)c2cc(Cl)cc(NC(=O)c3cc4cc(NS(C)(=O)=O)cnc4s3)c2)c1 [Example 57, N-(3-chloro-5-(2-(3-methoxy-5-(trifluoromethoxy)phenyl)propan-2-yl)phenyl)-5-(methylsulfonamido)thieno[2,3-b]pyridine-2-carboxamide]",0.047,0.18,0.16,0.067,0.33
"CC(C)Oc1cc(OC(F)(F)F)cc(C(C)(C)c2cc(Cl)cc(NC(=O)c3cc4cc(NS(C)(=O)=O)cnc4s3)c2)c1 [Example 69, N-(3-chloro-5-(2-(3-isopropoxy-5-(trifluoromethoxy)phenyl)propan-2-yl)phenyl)-5-(methylsulfonamido)thieno[2,3-b]pyridine-2-carboxamide]",0.052,0.09,0.058,0.052,0.14
"CC(C)Oc1cc(CN2CCN(C3COC3)CC2)cc(C(C)(C)c2cc(Cl)cc(NC(=O)c3cc4cc(NS(C)(=O)=O)ccc4s3)c2)c1 [Example 130, N-(3-chloro-5-(2-(3-isopropoxy-5-((4-(oxetan-3-yl)piperazin-1-yl)methyl)phenyl)propan-2-yl)phenyl)-5-(methylsulfonamido)benzo[b]thiophene-2-carboxamide]",0.17,> 1.1,0.76,0.308,0.74
